According to patent publication US8889662B2, “Method to alter sex ratios in avian offspring” (University of Georgia Research Foundation, Inc., priority 2009, dated 2014):

Columns and labels:
[1] = system: zebra finch (Taeniopygia guttata); assay: Example 2: disruption of ovulation, oviposition and embryo development after injection, zebra finches; assay type: in vivo; settings: 20 ug injection
Method: Zebra finch (Taeniopygia guttata) pairs obtained from a breeding colony maintained at The University of Georgia were housed in individual cages and provided feed and water ad libidumn. Birds were kept under a 14 hour (h) light (L):10 h dark (D) light schedule. Egg-laying was monitored daily and eggs marked to record sequence order. Females were injected intraperitoneally after the first or second egg of the clutch was laid with one of three treatments: 20 μg of CORT dissolved in 50 μl peanut oil and 10% ethanol (CORT), 20 μg of progesterone dissolved in […] and 10% ethanol (P), or 50 μl of control peanut oil (C). A fourth set of females received no injection treatment (UN). […] The follicle ovulating 5 hours after injection, was laid approximately 36 hours after injection (FIG. 3). Ovulating follicles exposed to treatments were laid as the 3rd or 4th egg in the sequence (3rd egg if treatment was administered on the day the 1st egg was laid and the 4th egg in the sequence if treatment was administered on the day the 2nd egg was laid). Eggs were allowed to incubate in the nest for 8-12 days prior to collection to allow sufficient embryonic development for DNA extraction and molecular sexing analyses. Occasionally these treatments disrupted the oviposition immediately following the injection. Females that delayed oviposition after treatment were excluded from analysis because it was not possible to determine whether the egg collected the following day was from the ovulation event that occurred immediately following injection or from a delayed oviposition of the follicle ovulated the day prior to injection. Females that delayed oviposition were allowed to complete the clutch after which the treatment was repeated during the next clutch. […] Only 1/10 females treated with progesterone laid successfully. For this reason, progesterone treatments were eliminated from further analyses.

female chickens = settings: at the time of meiotic segregation, Correa et al. 2005; cited from earlier work
[2] = system: zebra finches and pigeons; settings: literature; cited from earlier work

SMILES: CC(=O)[C@H]1CC[C@H]2[C@@H]3CCC4=CC(=O)CC[C@]4(C)[C@H]3CC[C@]12C [progesterone]
- eggs with delayed oviposition [1]: 5 eggs
- eggs with no visible development [1]: 4 eggs
- females in which ovulation and oviposition were disrupted [1]: 90%
- females that laid successfully ([1]; number of treated females): 1/10
- sex ratio after acute progesterone treatment (female chickens): induced a sex ratio skew towards females

SMILES: C[C@]12CC[C@H]3[C@@H](CCC4=CC(=O)CC[C@@]43C)[C@@H]1CC[C@@H]2O [testosterone]
- sex ratio after testosterone treatment [2]: induced a skew towards males
